Counter-ions that a name gives are not always drawn.

The assay deals with GSK-3β (Homo sapiens, UniProt P49841). Put plainly: GSK3 kinase scintillation proximity assay (phosphorylation of biotinylated glycogen synthase peptide). The conditions noted are these: 20 nM kinase, 2.5 uM ATP, 2.8 uM peptide substrate, 40 minutes at room temperature; pIC50 = -log IC50 in Molar. It counts as biochemical. An excerpt:
The phosphorylated biotinylated peptide is then captured onto streptavidin coated scintillation proximity assay (SPA) beads from Amersham Technology, where the signal from the ^33P is amplified via the scintillant contained in the beads.
GSK-3β is commercially available or may be cloned and expressed in E coli using standard techniques to produce soluble, active protein. The production of active protein involves purification in two steps using Metal Chelate and Ion Exchange Chromatography. Protein eluting from Ion Exchange provides >90% pure product that may then be concentrated for use in high throughput screening.
The kinase was assayed at a concentration of 20 nM final in 100 mM HEPES, pH 7.2 containing 10 mM magnesium chloride, 0.1 mg/mL bovine serum albumin, 1 mM dithiothreitol, 0.3 mg/mL heparin, 2.8 uM peptide substrate, 2.5 uM ATP, and 0.2 uCi/well γ^33P]-ATP. After 40 minutes incubation at room temperature, the reaction was stopped by addition of 100 mM EDTA and […] in 100 mM HEPES, pH7.2 followed by an additional solution of diluted Streptavidin coated SPA beads in PBS, pH 7.2 to give a final concentration of 0.25 mg of beads per assay well in a 96-well microtiter plate.
10 mM stock solutions of the compounds of the invention in 100% DMSO are generated as a first step in the screening process. The second step involves the creation of dose response plates where these compounds are diluted 10-fold in 100% DMSO to 1 mM concentrations and subsequently serially diluted 3-fold in 100% DMSO across the plate by automated liquid handling such that the final top concentration of inhibitor is 0.033 mM in the 30 uL kinase assay. The third step involves the creation of the assay plates. This is achieved by transferring 1 uL of the compounds to assay plates by automated liquid handling. The fourth step is to perform the assay as described and count the resulting plates in the Packard TopCount NXT microplate scintillation and luminescence counter.
The final step is data acquisition and analysis where IC50 values are generated for each compound by normalizing curve data to the equation 100*(U1−C2)/(C1−C2) (where U1 is the cpm value, C2 is the background, and C1 is the maximum number of counts), then fitting the normalized data to the equation y=Vmax*(1−(x/(K+x))). The IC50 values were converted to pIC50 values, i.e., −log IC50 in Molar concentration. The data is expressed below in Table 1.
Background: Scintillation proximity formats need no separation of bound from free tracer.

GSK-3β, sequence (P49841 whole entry, species assumed): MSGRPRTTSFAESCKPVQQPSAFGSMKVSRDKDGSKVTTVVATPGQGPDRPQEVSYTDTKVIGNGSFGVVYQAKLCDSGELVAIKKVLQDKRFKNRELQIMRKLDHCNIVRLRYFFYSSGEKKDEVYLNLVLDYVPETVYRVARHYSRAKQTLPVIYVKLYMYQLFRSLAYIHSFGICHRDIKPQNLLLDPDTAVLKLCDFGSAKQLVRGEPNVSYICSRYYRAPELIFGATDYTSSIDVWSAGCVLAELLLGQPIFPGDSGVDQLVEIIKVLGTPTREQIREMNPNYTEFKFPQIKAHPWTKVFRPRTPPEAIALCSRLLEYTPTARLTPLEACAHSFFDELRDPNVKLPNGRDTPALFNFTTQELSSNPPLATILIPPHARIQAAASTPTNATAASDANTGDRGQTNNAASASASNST

One may read the IC50 as the midpoint of a concentration-inhibition curve. Read a high IC50 as a need for much substance. Molecule `CN(C)CCNC(=O)c1ccc(/C=N/Nc2ncnc3c2cnn3-c2ccccn2)cc1` [Example 21, N-[2-(Dimethylamino)ethyl]-4-{(E)-[(1-pyridin-2-yl-1H-pyrazolo[3,4-d]pyrimidin-4-yl)hydrazono]methyl}benzamide hydrochloride] had a half-maximal inhibitory concentration (IC50) of 100 to 1000 nM.
